From US20050250794A1, “Methods of treating a disorder” (priority 2003, published 2005) come the findings set out here.

Like-named read-outs stand apart in the source and are kept apart here.

In one experiment the target is T1, human SirT1 (Homo sapiens, UniProt Q96EB6).
T1 construct: purchased Biomol SE-239
T1 sequence (Q96EB6 1-747): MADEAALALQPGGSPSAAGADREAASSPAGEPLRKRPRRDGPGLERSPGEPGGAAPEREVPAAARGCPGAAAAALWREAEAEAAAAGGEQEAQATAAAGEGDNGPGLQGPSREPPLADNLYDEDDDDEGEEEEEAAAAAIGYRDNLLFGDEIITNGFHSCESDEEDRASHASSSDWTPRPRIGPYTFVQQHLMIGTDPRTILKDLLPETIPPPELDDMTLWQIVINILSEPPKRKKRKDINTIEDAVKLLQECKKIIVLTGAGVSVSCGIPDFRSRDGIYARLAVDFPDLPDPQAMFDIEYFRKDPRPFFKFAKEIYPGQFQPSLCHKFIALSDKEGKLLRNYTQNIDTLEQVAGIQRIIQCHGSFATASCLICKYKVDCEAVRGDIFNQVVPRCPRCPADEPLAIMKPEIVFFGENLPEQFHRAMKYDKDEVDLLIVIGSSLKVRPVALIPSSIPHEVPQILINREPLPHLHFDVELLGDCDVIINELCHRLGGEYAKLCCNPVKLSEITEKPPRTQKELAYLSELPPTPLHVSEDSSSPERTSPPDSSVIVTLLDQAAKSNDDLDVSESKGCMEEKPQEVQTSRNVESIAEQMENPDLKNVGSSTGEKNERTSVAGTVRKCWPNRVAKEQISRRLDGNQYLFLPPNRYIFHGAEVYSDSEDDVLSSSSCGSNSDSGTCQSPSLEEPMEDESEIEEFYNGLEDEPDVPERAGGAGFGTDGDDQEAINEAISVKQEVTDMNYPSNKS
The experiment is described as follows: SirT1 Fluor de Lys enzymatic deacetylase assay. The format is biochemical. The source says: An exemplary assay method includes a 1536 well format of the SirT1 enzymatic assay that is based on the commercial “Fluor-de-Lys” assay principle by Biomol, which is fluorogenic (www.biomol.com/store/Product_Data_PDFs/ak500.pdf). In this assay, deacetylation of the e-amino function of a lysyl residue is coupled to a fluorogenic “development step that is dependent on the unblocked e-amino functionality and generates fluorescent aminomethylcoumarin. Fluorescence can be read on a commercial macroscopic reader.
Step Description • 1 Prepare amount of 2× Substrates necessary for the number of wells to be assayed.

The target in another experiment is T2, SirT2 (Homo sapiens, UniProt Q8IXJ6).
T2 sequence (Q8IXJ6 1-389): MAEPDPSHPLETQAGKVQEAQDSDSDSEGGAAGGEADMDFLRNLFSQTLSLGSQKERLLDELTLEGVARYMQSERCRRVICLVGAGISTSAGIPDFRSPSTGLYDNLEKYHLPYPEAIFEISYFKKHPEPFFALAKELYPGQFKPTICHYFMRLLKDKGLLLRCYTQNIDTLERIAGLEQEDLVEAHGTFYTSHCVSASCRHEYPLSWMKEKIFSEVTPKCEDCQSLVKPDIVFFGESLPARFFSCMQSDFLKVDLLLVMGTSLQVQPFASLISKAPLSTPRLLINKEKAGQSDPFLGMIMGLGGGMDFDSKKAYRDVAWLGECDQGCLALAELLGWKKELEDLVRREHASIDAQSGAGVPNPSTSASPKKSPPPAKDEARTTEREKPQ
The experiment is described as follows: SirT2 activity (Tables 1 and 2). It counts as biochemical.

The next experiment concerns the target T3, GFP-hSIRT2 isoform 1 (Homo sapiens, UniProt Q8IXJ6).
T3 construct: expressed in transfected cells; host or cells: HeLa
T3 sequence (Q8IXJ6 1-389): T2 sequence (Q8IXJ6 1-389)
Nature of the experiment: Acetylated tubulin staining in HeLa cells transfected with GFP-hSIRT2 isoform 1. The format is cell-based. The note with it: 50 μM compound with 1 μM TSA, added 36 hours post transfection, stained next morning; versus DMSO. The protocol:
HeLa cells were transfected with GFP-hSIRT2 isoform 1. At 36 hours post transfection 1 μM of TSA and either DMSO or 50 μM of Compound 8 was added. The next morning cells were fixed, permeabilized, and stained for acetylated tubulin.

[1] abbreviates: Table 3, p53-382 Fluor de Lys substrate, read-out: SirT1 p53-382-FdL IC50.
Setting [2] is: Table 1, Activity of Triazoles (conc. in μM), read-out: SirT1.
Where [3] appears, read: Table 1, Activity of Triazoles (conc. in μM).
The mark [4] stands for this setting: Table 2, Activity of representative compounds (conc. in μM), read-out: SirT1.
The mark [5] stands for this setting: Table 2, Activity of representative compounds (conc. in μM).

In the case of `Cc1sc(NC(=O)C2CC2)c(C(N)=O)c1C` [Compound 26, 2-(Cyclopropanecarbonyl-amino)-4,5-dimethyl-thiophene-3-carboxylic acid amide], on human SirT1 (setting [1]), the IC50 is more than 10 µM.

In the case of `CCC1CCc2c(sc(N)c2C(N)=O)C1` (stereo not shown) [Compound 38, 2-Amino-6-ethyl-4,5,6,7-tetrahydro-benzo[b]thiophene-3-carboxylic acid amide], at human SirT1 (setting [1]), the IC50 is more than 10 µM.

Take `NC(=O)CSc1nnc(Cc2c[nH]c3ccccc23)n1Cc1ccccc1` [Compound 1, 2-[4-Benzyl-5-(1H-indol-3-ylmethyl)-4H-[1,2,4]triazol-3-ylsulfanyl]-acetamide]: the results for the IC50 on human SirT1 (setting [2]) and on SirT2 (setting [3]) were 1 to 10 µM and more than 10 µM, respectively.

Consider `CC1CCc2c(sc(N)c2C(N)=O)C1` (stereo not shown) [Compound 36, 2-Amino-6-methyl-4,5,6,7-tetrahydro-benzo[b]thiophene-3-carboxylic acid amide], for which the IC50 at human SirT1 (setting [1]) was more than 10 µM.

Turning to `CCC(=O)Nc1sc2c(c1C(N)=O)CCC(C)C2` (stereo not shown) [Compound 35, 6-Methyl-2-propionylamino-4,5,6,7-tetrahydro-benzo[b]thiophene-3-carboxylic acid amide], the IC50 on human SirT1 (setting [1]) was 1 to 10 µM.

For the compound `CSc1c(CC(=O)NCCO)n(C)c2ccc(C)cc12` [Compound 48, 2-(1,5-Dimethyl-3-methylsulfanyl-1H-indol-2-yl)-N-(2-hydroxy-ethyl)-acetamide], the IC50 at human SirT1 (setting [1]) was more than 10 µM.

As for `NC(=O)COC(=O)c1sc2ccccc2c1Cl` [Compound 8, 3-Chloro-benzo[b]thiophene-2-carboxylic acid carbamoylmethyl ester], the “acetylation of tubulin in cells expressing SIRT2” value at GFP-hSIRT2 isoform 1 is “more highly acetylated”.

On to `Cc1sc(NC(=O)Cn2nc([N+](=O)[O-])cc2C)c(C(N)=O)c1C` [Compound 9, 4,5-Dimethyl-2-[2-(5-methyl-3-nitro-pyrazol-1-yl)-acetylamino]-thiophene-3-carboxylic acid amide], for which the IC50 at human SirT1 (setting [1]) was more than 10 µM.

With `Nn1c(CCC(=O)O)nc2sc3c(c2c1=O)CCCC3` [Compound 7, 3-(3-Amino-4-oxo-3,4,5,6,7,8-hexahydro-benzo[4,5]thieno[2,3-d]pyrimidin-2-yl)-propionic acid], the IC50 on human SirT1 (setting [4]) and at SirT2 (setting [5]) was more than 10 µM throughout.

`COc1ccc(-n2c(COc3cccc4ccccc34)nnc2SCC(N)=O)cc1` [Compound 2, 2-[4-(4-Methoxy-phenyl)-5-(naphthalen-1-yloxymethyl)-4H-[1,2,4]triazol-3-ylsulfanyl]-acetamide]: the figures for the IC50 on human SirT1 (setting [2]) and against SirT2 (setting [3]) were 1 to 10 µM and more than 10 µM, respectively.

Turning to `NC(=O)Cn1c(=O)oc2cc(Br)ccc21` [Compound 6, 2-(6-Bromo-2-oxo-benzooxazol-3-yl)-acetamide], the IC50 on human SirT1 (setting [4]) is 1 to 10 µM; against SirT2 (setting [5]) it was more than 10 µM.

Regarding `NC(=O)c1c(NC(=O)C2CC2)sc2c1CCCCC2` [Compound 34, 2-(Cyclopropanecarbonyl-amino)-5,6,7,8-tetrahydro-4H-cyclohepta[b]thiophene-3-carboxylic acid amide], the IC50 on human SirT1 (setting [1]) was more than 10 µM.

Regarding `Cc1ccc(-n2c(Cc3ccccc3)nnc2SCC(N)=O)cc1` [Compound 3, 2-(5-Benzyl-4-p-tolyl-4H-[1,2,4]triazol-3-ylsulfanyl)-acetamide], the results for the IC50 on human SirT1 (setting [2]) and against SirT2 (setting [3]) were 1 to 10 µM and more than 10 µM, respectively.

Regarding `Cc1sc(NC(=O)C2CCCO2)c(C(N)=O)c1C` (stereo not shown) [Compound 15, Tetrahydro-furan-2-carboxylic acid (3-carbamoyl-4,5-dimethyl-thiophen-2-yl)-amide], the IC50 at human SirT1 (setting [1]) is more than 10 µM.

In the case of `CC(C)CC(=O)Nc1sc2c(c1C(N)=O)CCCCCC2` [Compound 33, 2-(3-Methyl-butyrylamino)-4,5,6,7,8,9-hexahydro-cycloocta[b]thiophene-3-carboxylic acid amide], the IC50 on human SirT1 (setting [1]) was more than 10 µM.

With `Cc1sc(NC(=O)c2ccc(Br)o2)c(C(N)=O)c1C` [Compound 11, 5-Bromo-furan-2-carboxylic acid (3-carbamoyl-4,5-dimethyl-thiophen-2-yl)-amide], the IC50 on human SirT1 (setting [1]) was more than 10 µM.

For the compound `O=C(O)CSc1nc2sc3c(c2c(=O)n1C1CCCCC1)CCC3` [Compound 5, (5-Cyclohexyl-4-oxo-2,3,4,5-tetrahydro-1H-8-thia-5,7-diaza-cyclopenta[a]inden-6-ylsulfanyl)-acetic acid], the values for the IC50 on human SirT1 (setting [4]) and on SirT2 (setting [5]) were 1 to 10 µM and more than 10 µM, respectively.

Regarding `Cc1sc(NC(=O)c2ccncc2)c(C(N)=O)c1C` [Compound 29, N-(3-Carbamoyl-4,5-dimethyl-thiophen-2-yl)-isonicotinamide], the IC50 at human SirT1 (setting [1]) is more than 10 µM.

In the case of `Cc1ccc(-n2c(SCC(N)=O)nnc2-c2ccccc2Br)cc1` [Compound 4, 2-[5-(2-Bromo-phenyl)-4-p-tolyl-4H-[1,2,4]triazol-3-ylsulfanyl]-acetamide], the IC50 at human SirT1 (setting [2]) is more than 10 µM; against SirT2 (setting [3]), 1 to 10 µM.

Take `Cc1sc(NC(=O)c2cnccn2)c(C(N)=O)c1C` [Compound 30, Pyrazine-2-carboxylic acid (3-carbamoyl-4,5-dimethyl-thiophen-2-yl)-amide]: the IC50 at human SirT1 (setting [1]) was more than 10 µM.

Regarding `CC1CCc2c(sc(NC(=O)C3CCCC3)c2C(N)=O)C1` (stereo not shown) [Compound 32, 2-(Cyclopentanecarbonyl-amino)-6-methyl-4,5,6,7-tetrahydro-benzo[b]thiophene-3-carboxylic acid amide], the IC50 on human SirT1 (setting [1]) is less than 1 µM.
